{"source": "patent US10149833B2", "about": "“Small molecule, indirubin-3-oxime, for prevention and treatment of bone disease” (Industry-Academic Cooperation Foundation, Yonsei University, priority 2013, dated 2018)", "key": {"GSKβ": {"tested_on": "GSKβ", "assay": "Western blot in RCS cells, inactive GSKβ", "format": "cell-based, Rat", "settings": "24 hours treatment (FIG. 2A)", "protocol": "(§1) Rat chondrosarcoma (RCS) cells were cultured in a Dulbecco's modified Eagle's medium (DMEM; Gibco, Grand Island, N.Y.), supplemented with 10% fetal bovine serum (FBS) and penicillin/streptomycin.\n(§2) For Western blot analysis, cells were treated with indirubin-3′-oxime for 24 hours, cultured and reached to 70% confluency and then were harvested. After the harvested samples underwent cytolysis, the proteins were quantified, which was followed by electrophoresis using 10% or 12% SDA-PAGE gel. Afterwards, immunoblot was conducted using antibodies.\n(§3) Indirubin-3′-oxime, a GSKβ inhibitor, is already known to increase the stability of β-catenin."}, "growth plate": {"tested_on": "growth plate", "assay": "growth plate activity in 7-week-old mice treated for 2 weeks", "format": "in vivo, C57BL/6 mice", "settings": "treated 2 weeks", "protocol": "(§4) Two and six-week-old C57BL/6 mice, purchased from KOATECH (Gyeonggi-do, South Korea), were cared for in accordance with the guidelines established by the Institutional Animal Care and Use Committee at Yonsei University. The mice were divided into a control group and an experimental group, and were adapted to the environment for 1 week. Afterwards, they were treated every day for 2 weeks with a solution containing 20% dimethyl […] and 30% ethanol, or with indirubin-3′-oxime (0.05 mg/kg, 0.1 mg/kg, and 0.5 mg/kg), via intraperitoneal injection. Two weeks later, the tibiae were separated from mice, and then the muscles were separated and removed, after which the bones were fixed using 4% formaldehyde. The bones were treated for 2 weeks with a 10% EDTA solution for the decalcification process. The EDTA solution was changed every two days.\n(§5) The tissue-cultured embryo tibiae and the animal-tested tibiae were dewaxed in xylene, and were rehydrated in a stepwise-diluted ethanol solution. The tibial tissue, which was separated from 15.5-embryonic-day-old ICR mice and then tissue-cultured, was stained using the safranin staining procedure. Staining was carried out for 25 min in a 0.02% fast green solution, and after brief dipping in acetic acid, was again carried out for 7 min in a 0.1% safranin solution. Meanwhile, the tibial tissue that was animal-tested and decalcified in EDTA was stained via the hematoxylin-eosin staining procedure. The tissue was stained in a hematoxylin solution for 10 min and then rinsed in running water for 10 min. After being briefly dipped in a solution comprising 0.1% hydrochloric acid and 70% ethanol, the tissue was stained for 30 sec in an eosin solution. The stained tibial tissues again underwent a dehydration process in the stepwise-diluted ethanol solution and were dewaxed in xylene.\nThe tibiae that underwent a dewaxing process were dehydrated. After paraffin blocks were formed, the tissues were sectioned at 4-μm thickness. The sectioned tissues were rehydrated, and then stained using immunofluorescence. […]"}, "β-catenin [1]": {"tested_on": "β-catenin", "assay": "Western blot in RCS cells, β-catenin", "format": "cell-based, Rat", "settings": "24 hours treatment (FIG. 2A)", "protocol": "as §1, §2, §3"}, "β-catenin [2]": {"tested_on": "β-catenin", "assay": "IHC analysis on ex vivo tibia tissues", "format": "cell-based, mice", "settings": "ex vivo tibiae treated with the drug (FIG. 2C)", "protocol": "(§6) The tibiae were separated from 15.5-embryonic-day-old C57BL/6 mice, and were incubated in a 24-well tissue culture dish for 7 days. The medium used was prepared by adding 10% FBS, 1 mM beta-polyglycerol disodium phosphate, 50 ng/ml ascorbic acid, 0.3 mg/ml L-glutamine, 0.2% BSA, 100 U/ml penicillin, and 100 μg/ml streptomycin to a minimal essential medium (α-MEM, Gibco). Then, the tibiae were separated from the mice. After being treated in the medium for 24 hours, the tibia was treated with a drug. The medium and the drug were changed every two days. The tibia length was measured before and after treatment with the drug. The tibial tissue, on which drug treatment was completed, was rinsed with PBS and then fixed using 4% formaldehyde.\n(§7) The tibiae that underwent a dewaxing process were dehydrated. After paraffin blocks were formed, the tissues were sectioned at 4-μm thickness. The sectioned tissues were rehydrated, and then stained using immunofluorescence.\nas §3"}, "ex vivo tibia": {"tested_on": "ex vivo tibia", "assay": "ex vivo tibia culture, tibia length and safranin staining", "format": "cell-based, C57BL/6 mice", "settings": "1 μM and 5 μM", "protocol": "as §6, with “formaldehyde. The tissue-cultured embryo tibiae and the animal-tested tibiae were dewaxed in xylene, and were rehydrated in a stepwise-diluted ethanol solution. The tibial tissue, which was separated from 15.5-embryonic-day-old ICR mice and then tissue-cultured, was stained using the safranin staining procedure. Staining was carried out for 25 min in a 0.02% fast green solution, and after brief dipping in acetic acid, was again carried out for 7 min in a 0.1% safranin solution. Meanwhile, the tibial tissue that was animal-tested and decalcified in EDTA was stained via the hematoxylin-eosin staining procedure. […]” for “formaldehyde.”"}, "tibia": {"tested_on": "tibia", "assay": "tibia and growth plate length in mice dosed during a period of active growth", "format": "in vivo, C57BL/6 mice", "protocol": "as §4, §5, §7\nTo understand whether indirubin-3′-oxime can actually produce an increase in bone length in mice, indirubin-3′-oxime was administered during a period of active growth, and its effect was examined (FIG. 4A). First of all, the effect on the activity of the growth plate in the middle of a period of growth was examined using the hematoxylin-eosin staining procedure (FIG. 4B)."}, "β-catenin [3]": {"tested_on": "β-catenin", "assay": "ICC analysis (immunocytochemistry), β-catenin translocation into the nucleus", "format": "cell-based, Rat", "settings": "RCS cells, 24 hours treatment (FIG. 2B)", "protocol": "as §1\n2.5×10^4 cells were adhered to a cover glass placed in a 12-well plate. Once securely attached, cells were treated with indirubin-3′-oxime for 24 hours, and then were rinsed with a phosphoric acid buffer solution. After adding 4% paraformaldehyde, cells were fixed at room temperature for 20 min. Then, proteins expressed in the cells were observed through cell membrane permeation, blocking, and immunofluorescent staining processes.\nas §3"}, "[4]": {"settings": "growth plate at 9 weeks (FIG. 3C)"}}, "note": "Entries after “also recorded” stand apart in the source; their conditions may differ.", "data": [{"smiles": "O=C1Nc2ccccc2/C1=C1/Nc2ccccc2/C1=N\\O", "note": "[indirubin-3′-oxime]", "values": [{"measurement": "amount of inactive GSKβ (Western blot)", "setting": "GSKβ", "value": "increasing the amount of inactive GSK3; also recorded: increasing the amount of inactive GSKβ"}, {"measurement": "amount of Ki67, cell proliferation marker (IHC)", "setting": "growth plate; [4]", "value": "increase in the amount of Ki67"}, {"measurement": "stability of β-catenin in growth plate (IHC)", "setting": "growth plate; [4]", "value": "increase in the stability of β-catenin"}, {"measurement": "activity of the growth plate (hematoxylin-eosin staining)", "setting": "growth plate; intraperitoneal, compared with control at 9 weeks (FIG. 3B)", "value": "inhibits growth plate senescence; also recorded: activity of the growth plate was still maintained"}, {"measurement": "stability of β-catenin (Western blot)", "setting": "β-catenin [1]", "value": "increased the stability of β-catenin"}, {"measurement": "amount of β-catenin in the hypertrophic chondrocyte zone (IHC)", "setting": "β-catenin [2]", "value": "amount of β-catenin markedly increased in the hypertrophic chondrocyte zone"}, {"measurement": "length of resting zone, proliferating zone and hypertrophic chondrocyte zone (safranin staining)", "setting": "ex vivo tibia; 6 days, ex vivo tibia (FIGS. 1C, 1D)", "value": "increase in the total length (the resting zone, the proliferating zone, and the hypertrophic chondrocyte zone) that depended on the concentration"}, {"measurement": "increase in the total length of the tibia", "setting": "ex vivo tibia; tibiae treated for 6 days, ex vivo culture (FIGS. 1A, 1B)", "value": "dose-dependently induces longitudinal bone growth; also recorded: increase in the total length depended on the concentration change"}, {"measurement": "persistence of the bone length effect after growth has ceased", "setting": "tibia; 13-week-old mice (FIGS. 4D, 4E)", "value": "lasts even in 13-week-old mice; also recorded: found to last even in 13-week-old mice"}, {"measurement": "cell proliferation marker PCNA", "setting": "tibia; mice dosed during period of active growth (FIG. 4B)", "value": "confirmed through PCNA"}, {"measurement": "total bone length of the tibia", "setting": "tibia; mice dosed during period of active growth (FIG. 4D)", "value": "increase in the total bone length of the tibia"}, {"measurement": "length of each zone and total length of the growth plate", "setting": "tibia; mice dosed during period of active growth, hematoxylin-eosin staining (FIGS. 4B, 4C)", "value": "increases not only the length of each zone but also the total length of the growth plate; also recorded: increase not only in the length of each zone but also in the total length of the growth plate"}, {"measurement": "amount of β-catenin translocated into the nucleus (ICC)", "setting": "β-catenin [3]", "value": "increase in the amount of β-catenin that was translocated into the nucleus"}]}]}
